We go through one molecule from US9486546B2, “Methods and compositions for radiohalogen protein labeling” (Genentech, Inc., priority 2012, dated 2016).

A short description of the data set: Water solubility of labeling precursor. As to conditions: aqueous 0.1% acetic acid. It counts as physicochemical. From the text: The radiochemical strategy shown on FIG. 3 uses the mild, water soluble oxidant, N-chlorosuccinimide, to achieve iodination on the hydroxyphenyl group of 4. […] Even though much greater radiochemical yield was possible by increasing the ratio of 4 to Na^125I, the highest possible specific activity of the radiolabeled intermediate 5 and higher conjugation yields was facilitated by avoiding saturation of available reduced thiols. The intermediate 5 was easily purified from free iodide and oxidant using reverse-phase solid-phase extraction cartridges. Acid deprotection yielded the triacid 6, with completeness of reaction monitored by reverse-phase radio-HPLC (FIG. 3). This 4-hydroxy-3-iodophenyl derivative of DOTA, 6, was designated [^125I] HIP-DOTA. After exhaustive removal of acid by repeated evaporation of toluene, the thiol-containing antibody could be introduced for thiol-maleimide coupling. Remaining free thiols in the radioimmunoconjugate were capped with iodoacetic acid to avoid dimerization or formation of adducts with thiol containing plasma or endogenous proteins. All radioimmunoconjugates were analyzed for purity by size-exclusion HPLC and compared to the profile of unlabeled antibodies, such as trastuzumab.

For the molecule `CC(C)(C)OC(=O)CN1CCN(CC(=O)NCCN(CC(=O)NCC(=O)NCCN2C(=O)C=CC2=O)C(=O)Cc2ccc(O)cc2)CCN(CC(=O)OC(C)(C)C)CCN(CC(=O)OC(C)(C)C)CC1` [compound 4, tri-tert-butyl 2,2′,2″-(10-(14-(2,5-dioxo-2,5-dihydro-1H-pyrrol-1-yl)-6-(2-(4-hydroxyphenyl)acetyl)-2,8,11-trioxo-3,6,9,12-tetraazatetradecyl)-1,4,7,10-tetraazacyclododecane-1,4,7-triyl)triacetate], the Water solubility entry was “sufficiently water soluble”.
